From ChEMBL document CHEMBL5532659, “Design, Synthesis, and Evaluation of Cephamycin-Based Antisporulation Agents targeting Clostridioides difficile” (J Med Chem, 2024)
Converted amounts (≈) assume the structure as drawn. The source made the active and inactive calls. The rule behind the calls is not given here.

Legend:
Clostridioides difficile [1] = assay: Anti-sporulation activity against Clostridium difficile M7404 assessed as fold reduction in spore count incubated overnight by absorbance based assay relative to control; assay type: functional
Cryptococcus neoformans = assay: Antimicrobial activity against Cryptococcus neoformans ATCC 208821 assessed as microbial growth inhibition incubated for 36 hrs by resazurin dye based assay; assay type: functional
Candida albicans = assay: Antimicrobial activity against Candida albicans ATCC 90028 assessed as microbial growth inhibition incubated for 36 hrs by resazurin dye based assay; assay type: functional
[2] = Inhibition of Clostridium difficile SpoVD using Boc-FL as substrate preincubated for 30 mins followed by substrate addition measured after 30 mins by FP assay; set-up: species or system Clostridioides difficile
Klebsiella pneumoniae = assay: Antimicrobial activity against multidrug-resistant Klebsiella pneumoniae ATCC 700603 assessed as microbial growth inhibition incubated for 18 hrs; assay type: functional
[3] = Cytotoxicity against HEK293 cells incubated for 20 hrs by resazurin dye based assay; assay type: toxicity, cell-based; conditions: human
Erythrocyte = assay: Hemolytic activity in human RBC incubated for 70 mins by absorbance based assay; assay type: toxicity, cell-based; conditions: 1.167 h
Clostridioides difficile [4] = assay: Antimicrobial activity against Clostridium difficile assessed as microbial growth inhibition incubated for 18 hrs; assay type: functional
Escherichia coli = assay: Antimicrobial activity against Escherichia coli ATCC 25922 assessed as microbial growth inhibition incubated for 18 hrs; assay type: functional
Staphylococcus aureus = assay: Antimicrobial activity against methicillin-resistant Staphylococcus aureus ATCC 43300 assessed as microbial growth inhibition incubated for 18 hrs; assay type: functional
Acinetobacter baumannii = assay: Antimicrobial activity against Acinetobacter baumannii ATCC 19603 assessed as microbial growth inhibition incubated for 18 hrs; assay type: functional
Pseudomonas aeruginosa = assay: Antimicrobial activity against Pseudomonas aeruginosa ATCC 27853 assessed as microbial growth inhibition incubated for 18 hrs; assay type: functional
Clostridioides difficile [5] = assay: Anti-sporulation activity against Clostridium difficile M7404 infected in C57BL/6J mouse model assessed as reduction in spore shedding in faeces at 50 ug/ml pre-infected for 6 hrs followed by compound treatment measured for 2 to 4 days post-infection; assay type: functional, organism-based; conditions: dose 50.0 µg/ml, time 42-90 hrs

Row | SMILES | fold change (FC) (Clostridioides difficile [1]) | MIC50 (Cryptococcus neoformans) | MIC50 (Candida albicans) | IC50 [2] | MIC50 (Klebsiella pneumoniae) | CC50 at 20 h [3] | HC10 (Erythrocyte) | MIC50 (Clostridioides difficile [4]) | MIC50 (Escherichia coli) | MIC50 (Staphylococcus aureus) | MIC50 (Acinetobacter baumannii) | MIC50 (Pseudomonas aeruginosa) | Activity (Clostridioides difficile [5])
1 | CO[C@@]1(NC(=O)Cn2cc(-c3cccc(C(=O)O)c3)nn2)C(=O)N2C(C(=O)O)=C(CSc3nnnn3C)CS[C@@H]21 | 1000 | > 32 µg/mL | > 32 µg/mL | 69 nM | 32 µg/mL (≈ 54.5 µM) | > 32 µg/mL | > 32 µg/mL | 5 µg/mL (≈ 8.51 µM) | 8 µg/mL (≈ 13.6 µM) | 32 µg/mL (≈ 54.5 µM) | > 32 µg/mL | > 32 µg/mL | 
2 | CO[C@@]1(NC(=O)Cn2cc(CO)nn2)C(=O)N2C(C(=O)O)=C(CSc3nnnn3C)CS[C@@H]21 | 10 | > 32 µg/mL | > 32 µg/mL | 369 nM | 16 µg/mL (≈ 32.2 µM) | > 32 µg/mL | > 32 µg/mL | 10 µg/mL (≈ 20.1 µM) | 16 µg/mL (≈ 32.2 µM) | 32 µg/mL (≈ 64.3 µM) | > 32 µg/mL | > 32 µg/mL | 
3 | CO[C@@]1(NC(=O)Cn2cc(-c3ccc4ccccc4c3)nn2)C(=O)N2C(C(=O)O)=C(CSc3nnnn3C)CS[C@@H]21 | >100000 | > 32 µg/mL | > 32 µg/mL | 54 nM | > 32 µg/mL | > 32 µg/mL | > 32 µg/mL | 20 µg/mL (≈ 33.7 µM) | > 32 µg/mL | 32 µg/mL (≈ 53.9 µM) | > 32 µg/mL | > 32 µg/mL | 
4 | CO[C@@]1(NC(=O)Cn2cc(-c3cccc(F)c3)nn2)C(=O)N2C(C(=O)O)=C(CSc3nnnn3C)CS[C@@H]21 | 1000 | > 32 µg/mL | > 32 µg/mL | 131 nM | > 32 µg/mL | 13.2 µg/mL (≈ 23.5 µM) | > 32 µg/mL | 5 µg/mL (≈ 8.9 µM) | 32 µg/mL (≈ 57 µM) | 32 µg/mL (≈ 57 µM) | > 32 µg/mL | > 32 µg/mL | 
5 | CO[C@@]1(NC(=O)Cn2cc(-c3cccc4cccnc34)nn2)C(=O)N2C(C(=O)O)=C(CSc3nnnn3C)CS[C@@H]21 | 100 | > 32 µg/mL | > 32 µg/mL | 472 nM | > 32 µg/mL | > 32 µg/mL | > 32 µg/mL | > 40 µg/mL | > 32 µg/mL | 32 µg/mL (≈ 53.8 µM) | > 32 µg/mL | > 32 µg/mL | 
6 | COc1ccc(-c2cn(CC(=O)N[C@]3(OC)C(=O)N4C(C(=O)O)=C(CSc5nnnn5C)CS[C@@H]43)nn2)cc1 | 100 | > 32 µg/mL | > 32 µg/mL | > 15000 nM | > 32 µg/mL | > 32 µg/mL | > 32 µg/mL | 10 µg/mL (≈ 17.4 µM) | 32 µg/mL (≈ 55.8 µM) | 32 µg/mL (≈ 55.8 µM) | > 32 µg/mL | > 32 µg/mL | 
7 | CO[C@@]1(NC(=O)Cn2cc(CCC(C)C)nn2)C(=O)N2C(C(=O)O)=C(CSc3nnnn3C)CS[C@@H]21 | 1000 | > 32 µg/mL | > 32 µg/mL | 142 nM | > 32 µg/mL | 16.1 µg/mL (≈ 29.9 µM) | > 32 µg/mL | 5 µg/mL (≈ 9.3 µM) | 32 µg/mL (≈ 59.5 µM) | 32 µg/mL (≈ 59.5 µM) | > 32 µg/mL | > 32 µg/mL | 
8 | CO[C@@]1(NC(=O)Cn2cc(-c3cccc4ccccc34)nn2)C(=O)N2C(C(=O)O)=C(CSc3nnnn3C)CS[C@@H]21 | >100000 | > 32 µg/mL | > 32 µg/mL | 86 nM | > 32 µg/mL | > 32 µg/mL | > 32 µg/mL | 40 µg/mL (≈ 67.4 µM) | 32 µg/mL (≈ 53.9 µM) | 8 µg/mL (≈ 13.5 µM) | > 32 µg/mL | > 32 µg/mL | 
9 | CO[C@@]1(NC(=O)Cn2cc(C3CCCCC3)nn2)C(=O)N2C(C(=O)O)=C(CSc3nnnn3C)CS[C@@H]21 | >100000 | > 32 µg/mL | > 32 µg/mL | 90 nM | > 32 µg/mL | > 32 µg/mL | 10 µg/mL | 5 µg/mL (≈ 9.1 µM) | 32 µg/mL (≈ 58.2 µM) | 32 µg/mL (≈ 58.2 µM) | > 32 µg/mL | > 32 µg/mL | 
10 | CO[C@@]1(NC(=O)Cn2cc(-c3ccccc3)nn2)C(=O)N2C(C(=O)O)=C(CSc3nnnn3C)CS[C@@H]21 | >100000 | > 32 µg/mL | > 32 µg/mL | 89 nM | 32 µg/mL (≈ 58.9 µM) | > 32 µg/mL | > 32 µg/mL | 5 µg/mL (≈ 9.2 µM) | 32 µg/mL (≈ 58.9 µM) | 32 µg/mL (≈ 58.9 µM) | > 32 µg/mL | > 32 µg/mL | Active
11 | CO[C@@]1(NC(=O)C2SC(=C(C(N)=O)C(=O)O)S2)C(=O)N2C(C(=O)O)=C(CSc3nnnn3C)CS[C@@H]21 (some centres undefined) [CEFOTETAN] | 10000 | > 32 µg/mL | > 32 µg/mL | 15 nM | > 32 µg/mL | > 32 µg/mL | > 32 µg/mL | 20 µg/mL (≈ 34.7 µM) | 4 µg/mL (≈ 6.95 µM) | > 32 µg/mL | > 32 µg/mL | > 32 µg/mL | 
12 | CO[C@@]1(NC(=O)Cn2cc(C(C)(C)O)nn2)C(=O)N2C(C(=O)O)=C(CSc3nnnn3C)CS[C@@H]21 | 100 | > 32 µg/mL | > 32 µg/mL |  | 32 µg/mL (≈ 60.9 µM) | 0.7 µg/mL (≈ 1.33 µM) | 17 µg/mL | 40 µg/mL (≈ 76.1 µM) | 32 µg/mL (≈ 60.9 µM) | 32 µg/mL (≈ 60.9 µM) | > 32 µg/mL | > 32 µg/mL | 
13 | CO[C@@]1(NC(=O)Cn2cc(-c3ccc(C#N)cc3)nn2)C(=O)N2C(C(=O)O)=C(CSc3nnnn3C)CS[C@@H]21 | >100000 | > 32 µg/mL | > 32 µg/mL | 72 nM | > 32 µg/mL | > 32 µg/mL | > 32 µg/mL | > 40 µg/mL | 32 µg/mL (≈ 56.3 µM) | > 32 µg/mL | > 32 µg/mL | > 32 µg/mL | 
14 | CO[C@@]1(NC(=O)Cn2cc(C(=O)O)nn2)C(=O)N2C(C(=O)O)=C(CSc3nnnn3C)CS[C@@H]21 | 100 | > 32 µg/mL | > 32 µg/mL |  | > 32 µg/mL | > 32 µg/mL | > 32 µg/mL | 20 µg/mL (≈ 39.1 µM) | 16 µg/mL (≈ 31.3 µM) | ≤ 0.25 µg/mL | > 32 µg/mL | > 32 µg/mL | 
15 | CO[C@@]1(NC(=O)Cn2cc(-c3ccc(C(=O)O)cc3)nn2)C(=O)N2C(C(=O)O)=C(CSc3nnnn3C)CS[C@@H]21 | 1000 | > 32 µg/mL | > 32 µg/mL | 115 nM | 32 µg/mL (≈ 54.5 µM) | > 32 µg/mL | > 32 µg/mL | 10 µg/mL (≈ 17 µM) | 32 µg/mL (≈ 54.5 µM) | 32 µg/mL (≈ 54.5 µM) | > 32 µg/mL | > 32 µg/mL | 
